From patent US20090240027A1, “INTERMEDIATES FOR MACROCYCLIC COMPOUNDS” (Tranzyme Pharma Inc., priority 2003, published 2009)
pKi: −log10 of the molar value.

Target: human motilin receptor (Homo sapiens, UniProt O43193)
Experiment: Competitive radioligand binding assay (Method B1)
Parameters: purchased PerkinElmer 6110544; host or cells: CHO cells, stably transfected (membranes)
Settings: Radioligand competitive binding assay, Method B1; values reported as ranges; read-out: Ki (binding activity)
Experimental: Competitive Radioligand Binding Assay (Motilin Receptor)
• Membranes were prepared from CHO cells stably transfected with the human motilin receptor and utilized at a quantity of 1.5 μg/assay point.
Final Test Concentrations (N=11) for Compounds:
Compounds were provided frozen on dry ice at a stock concentration of 10 mM diluted in 100% DMSO and stored at −20° C. until the day of testing. On the test day, compounds were allowed to thaw at room temperature and than diluted in assay buffer according to the desired test concentrations. Under these conditions, the maximum final DMSO concentration in the assay was 0.5%.
Plates are sealed with TopSeal-A, vortexed gently and incubated at room temperature for 2 hours. The reaction is arrested by filtering samples through pre-soaked (0.3% polyethyleneimine, 2 h) Multiscreen Harvest plates using a Tomtec® Harvester (Tomtec, Hamden, Conn.)), washed 9 times with 500 μL of cold 50 mM Tris-HCl (pH 7.4), and than plates are air-dried in a fumehood for 30 minutes. A bottom seal is applied to the plates prior to the addition of 25 μL of MicroScint-0™ to each well.
Data are analyzed by GraphPad™ Prism (GraphPad Software, San Diego, Calif.) using a variable slope non-linear regression analysis.
where total and non-specific binding represent the cpm obtained in the absence or presence of 1 μM motilin, respectively.

Chain of human motilin receptor (O43193 whole entry): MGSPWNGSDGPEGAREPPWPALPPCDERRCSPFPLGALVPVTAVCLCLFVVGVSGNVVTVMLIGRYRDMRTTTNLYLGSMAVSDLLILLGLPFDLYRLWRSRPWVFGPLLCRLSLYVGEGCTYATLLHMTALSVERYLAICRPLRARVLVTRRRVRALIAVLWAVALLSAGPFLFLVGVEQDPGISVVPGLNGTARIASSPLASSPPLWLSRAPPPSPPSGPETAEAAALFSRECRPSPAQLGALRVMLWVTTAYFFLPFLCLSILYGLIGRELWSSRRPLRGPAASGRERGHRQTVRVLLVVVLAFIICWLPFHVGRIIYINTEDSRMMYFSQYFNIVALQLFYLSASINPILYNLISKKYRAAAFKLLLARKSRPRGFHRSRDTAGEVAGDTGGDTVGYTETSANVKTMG

SMILES	pKi
CC(C)C[C@@H]1NC(=O)[C@@H](C(C)C)NC(=O)[C@@H](Cc2ccc3ccccc3c2)NCCOc2ccccc2CCCNC1=O [Compound 14]	6.00 to 7.00
CCCC1NC(=O)C(C(C)C)NC(=O)C(Cc2ccc(O)cc2)NCCOc2cccnc2CCCNC1=O (centres unmarked) [Compound 110]	6.00 to 7.00
CCCC1NC(=O)C(Cc2ccc(O)cc2)NC(=O)C(Cc2ccc(O)cc2)NCCOc2ccccc2C=CCNC1=O (centres unmarked) [Compound 34]	6.00 to 7.00
CC(C)C1NC(=O)C(Cc2ccc(Cl)cc2)NCCOc2cccnc2CCCNC(=O)C(CC2CC2)NC1=O (centres unmarked) [Compound 150]	6.00 to 7.00
CC(C)C1NC(=O)C(Cc2ccc(O)cc2)NCCOc2ccccc2C=CCNC(=O)CNC1=O (centres unmarked) [Compound 40]	5.00 to 6.00
CC(C)[C@H]1NC(=O)[C@@H](Cc2ccc(O)cc2)NCCOc2ccccc2CCCNC(=O)[C@H](CC2CC2)NC1=O [Compound 26]	7.00 to 9.00
CCCC1NC(=O)C(C(C)C)NC(=O)C(Cc2ccc(-c3ccccc3)cc2)NCCOc2ccccc2CCCNC1=O (centres unmarked) [Compound 87]	6.00 to 7.00
COc1ccc(CC2NCCOc3ccccc3CCCNC(=O)C(CO)NC(=O)C(C(C)C)NC2=O)cc1 (centres unmarked) [Compound 178]	6.00 to 7.00
CCC[C@@H]1NC(=O)[C@@H](C(C)C)NC(=O)[C@@H](Cc2ccccc2)NCCOc2ccccc2/C=C/CNC1=O [Compound 2]	7.00 to 9.00
CCCC1NC(=O)C(C(C)C)NC(=O)C(Cc2ccc(O)cc2)NCCOc2cccc(c2)OCCNC1=O (centres unmarked) [Compound 71]	6.00 to 7.00
CCCC1NC(=O)C(Cc2ccccc2)NC(=O)C(Cc2ccc(O)cc2)NCCOc2ccccc2C=CCNC1=O (centres unmarked) [Compound 41]	5.00 to 6.00
CCCC1NC(=O)C(C(C)C)NC(=O)C(Cc2ccc(OC(C)(C)C)cc2)NCCOc2ccccc2CCCNC1=O (centres unmarked) [Compound 88]	5.00 to 6.00
CCCC1NC(=O)C(C(C)C)NC(=O)C(Cc2ccccc2C)NCCOc2ccccc2CCCNC1=O (centres unmarked) [Compound 162]	6.00 to 7.00
CSCCC1NC(=O)C(C(C)C)NC(=O)C(Cc2ccc(O)cc2)NCCOc2ccccc2C=CCNC1=O (centres unmarked) [Compound 6]	6.00 to 7.00
CC(C)C[C@@H]1NC(=O)[C@@H](C(C)C)NC(=O)[C@@H](Cc2ccc(F)cc2)NCCOc2ccccc2CCCNC1=O [Compound 133]	7.00 to 9.00
CCCC1NC(=O)C(C(C)C)NC(=O)CC(Cc2cccc(Cl)c2)NCCOc2ccccc2CCCNC1=O (centres unmarked) [Compound 169]	6.00 to 7.00
COc1ccc(C[C@H]2NCCOc3ccccc3CCCNC(=O)[C@H](CC(C)C)NC(=O)[C@@H](C(C)C)NC2=O)cc1 [Compound 128]	6.00 to 7.00
CCCC1NC(=O)C(C(C)CC)NC(=O)C(Cc2ccc(O)cc2)NCCOc2ccccc2CCCNC1=O (centres unmarked) [Compound 159]	6.00 to 7.00
CCC[C@@H]1NC(=O)[C@@H](C(C)C)NC(=O)[C@@H](Cc2ccc(OC)c(OC)c2)NCCOc2ccccc2CCCNC1=O [Compound 172]	7.00 to 9.00
CCCC1NC(=O)C(C(C)C)NC(=O)C(Cc2ccc(O)cc2)NCCOc2ccccc2CCNC1=O (centres unmarked) [Compound 177]	6.00 to 7.00
CCCC1NC(=O)C(C(C)C)NC(=O)C(Cc2ccncc2)NCCOc2ccccc2CCCNC1=O (centres unmarked) [Compound 124]	6.00 to 7.00
CC(C)C1NC(=O)C(Cc2ccc(O)cc2)NCCOc2ccccc2CCCNC(=O)C(CCN)NC1=O (centres unmarked) [Compound 109]	6.00 to 7.00
CCC[C@@H]1NC(=O)[C@@H](C(C)C)NC(=O)[C@@H](Cc2ccc(Cl)cc2)NCCOc2ccccc2CCCNC1=O [Compound 16]	7.00 to 9.00
CCCC1NC(=O)C(C(C)C)NC(=O)C(Cc2c[nH]cn2)NCc2ccccc2Sc2ccccc2CNC1=O (centres unmarked) [Compound 127]	6.00 to 7.00
CCC[C@@H]1NC(=O)[C@@H](C(C)C)NC(=O)[C@@H](Cc2ccc(F)c(F)c2)NCCOc2ccccc2CCCNC1=O [Compound 171]	7.00 to 9.00

SMILES	pKi
CCCC1NC(=O)C(C(C)C)NC(=O)C(Cc2ccccn2)NCCOc2ccccc2CCCNC1=O (centres unmarked) [Compound 123]	6.00 to 7.00
CCCC1NC(=O)C(C2CC2)NC(=O)C(Cc2ccc(O)cc2)NCCOc2ccccc2CCCNC1=O (centres unmarked) [Compound 125]	6.00 to 7.00
CCCC1NC(=O)C(C(C)C)NC(=O)C(Cc2ccc(O)cc2)NCCOc2ccccc2C=CCNC1=O (centres unmarked) [Compound 85]	6.00 to 7.00
CC(C)C1NC(=O)C(Cc2ccc(O)cc2)NCCOc2ccccc2C=CCNC(=O)C(CCCCN)NC1=O (centres unmarked) [Compound 55]	6.00 to 7.00
CC(C)CC1NC(=O)C(C(C)C)NC(=O)C(Cc2cccs2)NCCOc2ccccc2CCCNC1=O (centres unmarked) [Compound 130]	6.00 to 7.00
CC(C)C[C@@H]1NC(=O)[C@@H](C(C)C)NC(=O)[C@@H](Cc2cccc(Cl)c2)NCCOc2ccccc2CCCNC1=O [Compound 131]	7.00 to 9.00
CCCC1NC(=O)C(C(C)C)NC(=O)C(C(c2ccccc2)c2ccccc2)NCCOc2ccccc2CCCNC1=O (centres unmarked) [Compound 90]	5.00 to 6.00
COc1ccc(CC2NC(=O)C(C(C)C)NC(=O)C(Cc3ccc(O)cc3)NCCOc3ccccc3C=CCNC2=O)cc1 (centres unmarked) [Compound 60]	5.00 to 6.00
CCCC1NC(=O)C(C(C)C)NC(=O)C(Cc2ccc(CN)cc2)NCCOc2ccccc2CCCNC1=O (centres unmarked) [Compound 161]	6.00 to 7.00
CC(C)[C@H]1NC(=O)[C@@H](Cc2ccc(Cl)cc2)NCCOc2ccccc2CCCNC(=O)[C@H](CC2CC2)NC1=O [Compound 145]	7.00 to 9.00
CCC[C@@H]1NC(=O)[C@@H](C(C)C)NC(=O)[C@@H](Cc2ccc(C)cc2)NCCOc2ccccc2CCCNC1=O [Compound 164]	6.00 to 7.00
CC(C)C1NC(=O)C(Cc2ccc(O)cc2)NCCOc2ccccc2C=CCNC(=O)C(CCCN)NC1=O (centres unmarked) [Compound 56]	6.00 to 7.00
CC(C)CC1NC(=O)C(C(C)C)NC(=O)C(Cc2ccc(Cl)cc2)NCCOc2cccnc2CCCNC1=O (centres unmarked) [Compound 139]	6.00 to 7.00
CC(C)C1NC(=O)C(Cc2cccs2)NCCOc2ccccc2CCCNC(=O)C(CN)NC1=O (centres unmarked) [Compound 154]	6.00 to 7.00
CC(C)C1NC(=O)C(Cc2ccc(O)cc2)NCCOc2ccccc2C=CCNC(=O)C(Cc2ccc(O)cc2)NC1=O (centres unmarked) [Compound 58]	6.00 to 7.00
CCCC1NC(=O)C(C(C)CC)NC(=O)C(Cc2ccc(O)cc2)NCCOc2ccccc2CCCNC1=O (centres unmarked) [Compound 160]	6.00 to 7.00
CCCC1NC(=O)C(C(C)C)NC(=O)C(Cc2ccc(O)cc2)NCCN(C)CCNC1=O (centres unmarked) [Compound 99]	5.00 to 6.00
CC1NC(=O)C(C(C)C)NC(=O)C(Cc2ccc(O)cc2)NCCOc2ccccc2C=CCNC1=O (centres unmarked) [Compound 38]	5.00 to 6.00
CCCC1NC(=O)C(C(C)(C)C)NC(=O)C(Cc2ccc(O)cc2)NCCOc2ccccc2CCCNC1=O (centres unmarked) [Compound 92]	6.00 to 7.00
COc1ccc(CC2NCCOc3cccnc3CCCNC(=O)C(CC(C)C)NC(=O)C(C(C)C)NC2=O)cc1 (centres unmarked) [Compound 135]	6.00 to 7.00
CC(C)C[C@@H]1NC(=O)[C@@H](C(C)C)NC(=O)[C@@H](Cc2ccc3ccccc3c2)NCCOc2ccccc2/C=C/CNC1=O [Compound 21]	7.00 to 9.00
CC(C)CC1NC(=O)C(C(C)C)NC(=O)C(Cc2ccccc2)NCCOc2ccccc2CCCNC1=O (centres unmarked) [Compound 13]	6.00 to 7.00
CCC(C)C1NC(=O)C(C(C)C)NC(=O)C(Cc2ccc(O)cc2)NCCOc2ccccc2C=CCNC1=O (centres unmarked) [Compound 80]	6.00 to 7.00
CCC1NC(=O)C(C(C)C)NC(=O)C(Cc2ccc(O)cc2)NCCOc2ccccc2C=CCNC1=O (centres unmarked) [Compound 12]	6.00 to 7.00
CCC[C@@H]1NC(=O)[C@@H](C(C)C)NC(=O)[C@@H](Cc2c[nH]c3ccccc23)NCCOc2ccccc2CCCNC1=O [Compound 17]	6.00 to 7.00
